The record followed here is ChEMBL document CHEMBL4354809, “p97: An Emerging Target for Cancer, Neurodegenerative Diseases, and Viral Infections” (J Med Chem, 2020).

Assay [1] has as its target T1, Transitional endoplasmic reticulum ATPase (Homo sapiens, UniProt P55072). Nature of the assay: Binding affinity to p97 (unknown origin) by SPR assay.
Assay [2] has as its system JeKo-1. Description: Growth inhibition of human JeKo1 cells assessed as reduction in cell viability by MTT assay. In kind it is functional, cell-based.
Assay [3] deals with T1, Transitional endoplasmic reticulum ATPase. Description: Inhibition of p97 (unknown origin) expressed in Escherichia coli BL21 (DE3) pre-incubated for 10 mins before ATP addition and measured up to 120 mins measured by malachite green assay.
In assay [4] the target is ATP-dependent clpX-like chaperone, mitochondrial (Homo sapiens, UniProt O76031). Description: Inhibition of ClpX (unknown origin) expressed in Escherichia coli BL21 (DE3) pre-incubated for 10 mins before ATP addition and measured up to 120 mins measured by malachite green assay.
Assay [5] has as its target T1, Transitional endoplasmic reticulum ATPase. Nature of the assay: Inhibition of p97 in HEK293 cells co-expressing GFP and hemagglutinin assessed as reduction in p97-dependent ERAD pathway by immunoblotting analysis. It counts as cell-based.
For assay [6] the target is unchanged. Nature of the assay: Inhibition of GST-fused VCP (unknown origin) expressed in Escherichia coli BL21 star (DE3) pre-incubated for 60 mins before ATP addition and measured after 60 mins by kinase Glo-Plus reagent based assay.
Assay [7] deals with Human betaherpesvirus 5. Nature of the assay: Antiviral activity against Human Cytomegalovirus. It counts as functional, organism-based.
The target in assay [8] is T1, Transitional endoplasmic reticulum ATPase. Nature of the assay: Inhibition of p97 (unknown origin) by malachite green assay.
Assay [9] addresses T2, Vacuolar protein sorting-associated protein 4B (Homo sapiens, UniProt O75351).
T2 sequence (O75351 whole entry): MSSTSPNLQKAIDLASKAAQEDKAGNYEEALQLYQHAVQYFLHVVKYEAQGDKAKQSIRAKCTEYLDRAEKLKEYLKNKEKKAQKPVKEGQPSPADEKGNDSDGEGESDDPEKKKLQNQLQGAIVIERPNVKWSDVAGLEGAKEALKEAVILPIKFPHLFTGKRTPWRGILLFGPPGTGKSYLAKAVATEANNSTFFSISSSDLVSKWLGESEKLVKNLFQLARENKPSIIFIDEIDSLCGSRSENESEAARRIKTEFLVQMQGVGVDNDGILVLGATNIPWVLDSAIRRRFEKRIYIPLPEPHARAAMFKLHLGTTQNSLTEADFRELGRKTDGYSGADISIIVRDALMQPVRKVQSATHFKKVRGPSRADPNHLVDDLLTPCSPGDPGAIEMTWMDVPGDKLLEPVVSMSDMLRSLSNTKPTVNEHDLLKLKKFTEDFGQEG
Description: Inhibition of VPS4B (unknown origin) assessed as reduction in ATPase activity in presence of activating fragment of substrate CHMP1B.

For assay [10], the species on record is Homo sapiens. Nature of the assay: Selectivity ratio of IC50 for inhibition of p97 (unknown origin) by malachite green assay to IC50 for inhibition of VPS4B (unknown origin) by malachite green assay.
For assay [11], the target named is T2, Vacuolar protein sorting-associated protein 4B. Description: Inhibition of VPS4B (unknown origin) by malachite green assay.
For assay [12], the target named is T1, Transitional endoplasmic reticulum ATPase. Nature of the assay: Inhibition of p97 in human HeLa cells assessed as reduction in p97-dependent UbG76V-GFP degradation incubated for 1 hr by […] reporter gene assay. It counts as cell-based.
Assay [13] has the same target. Description: Inhibition of p97 (unknown origin) assessed as reduction in ATPase activity.
Assay [14] relates to HCT-116. Description: Antiproliferative activity against human HCT116 cells. In kind it is functional, cell-based.
Assay [15] addresses T1, Transitional endoplasmic reticulum ATPase. Nature of the assay: Inhibition of p97 (unknown origin) by ADP-Glo assay.
The target is the same in assay [16]. Nature of the assay: Binding affinity to GST-tagged p97 (unknown origin) by CD spectroscopy.
Assay [17] concerns Panel NCI-60 (60 carcinoma cell lines). Nature of the assay: Growth inhibition of human NCI60 cells. It counts as functional, cell-based.
In assay [18] the target is T1, Transitional endoplasmic reticulum ATPase. Nature of the assay: Inhibition of human p97.

T1 sequence (P55072 whole entry): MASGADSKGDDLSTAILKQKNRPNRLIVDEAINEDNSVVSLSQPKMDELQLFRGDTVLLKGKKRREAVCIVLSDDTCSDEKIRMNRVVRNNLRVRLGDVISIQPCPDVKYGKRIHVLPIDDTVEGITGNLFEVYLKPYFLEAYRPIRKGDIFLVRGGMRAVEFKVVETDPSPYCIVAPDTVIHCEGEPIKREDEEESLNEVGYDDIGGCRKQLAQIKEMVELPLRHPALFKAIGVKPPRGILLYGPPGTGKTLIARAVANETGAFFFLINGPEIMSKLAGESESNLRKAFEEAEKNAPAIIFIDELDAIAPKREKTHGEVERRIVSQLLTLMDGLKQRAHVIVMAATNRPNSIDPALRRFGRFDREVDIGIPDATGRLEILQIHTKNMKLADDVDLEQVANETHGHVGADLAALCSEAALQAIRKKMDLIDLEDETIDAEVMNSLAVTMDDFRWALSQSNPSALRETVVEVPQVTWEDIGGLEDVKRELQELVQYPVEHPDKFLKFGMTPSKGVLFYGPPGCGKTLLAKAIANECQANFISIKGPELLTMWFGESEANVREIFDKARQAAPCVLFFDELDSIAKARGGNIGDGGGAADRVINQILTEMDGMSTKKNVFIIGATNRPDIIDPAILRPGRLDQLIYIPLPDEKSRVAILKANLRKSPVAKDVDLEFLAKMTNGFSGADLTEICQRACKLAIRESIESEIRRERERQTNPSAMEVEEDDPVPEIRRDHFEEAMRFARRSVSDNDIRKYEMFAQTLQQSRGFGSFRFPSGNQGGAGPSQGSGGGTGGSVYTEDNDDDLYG
Chain of ATP-dependent clpX-like chaperone, mitochondrial (O76031 whole entry): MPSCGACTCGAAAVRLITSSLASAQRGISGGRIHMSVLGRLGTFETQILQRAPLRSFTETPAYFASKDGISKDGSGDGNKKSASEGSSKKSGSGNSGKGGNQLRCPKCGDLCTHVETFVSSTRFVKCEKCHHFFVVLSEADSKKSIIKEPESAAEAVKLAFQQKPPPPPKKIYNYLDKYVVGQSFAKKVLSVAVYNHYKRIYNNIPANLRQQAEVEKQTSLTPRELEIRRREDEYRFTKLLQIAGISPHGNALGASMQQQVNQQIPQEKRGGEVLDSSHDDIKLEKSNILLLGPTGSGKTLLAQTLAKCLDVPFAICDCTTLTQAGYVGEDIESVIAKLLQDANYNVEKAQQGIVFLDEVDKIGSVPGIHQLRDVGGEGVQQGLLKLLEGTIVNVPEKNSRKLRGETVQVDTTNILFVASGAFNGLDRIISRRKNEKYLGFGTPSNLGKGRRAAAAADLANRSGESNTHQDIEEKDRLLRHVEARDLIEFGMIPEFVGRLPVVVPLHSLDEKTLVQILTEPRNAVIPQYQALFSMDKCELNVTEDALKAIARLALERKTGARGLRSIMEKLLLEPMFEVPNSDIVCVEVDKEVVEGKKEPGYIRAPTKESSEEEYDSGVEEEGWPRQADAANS

As for `CC1(C)C(N(O)C(=O)Nc2ccc(Cl)cc2)N(c2ccc(Cl)cc2)C(=O)N1CC(=O)N/N=C/C=C/c1ccc([N+](=O)[O-])o1` (stereo not drawn), the Kd in assay [1] was in the range of 5 to 10 µM. Besides, in assay [2], the IC50 amounted to 4 µM.

With `CC(=O)OCC1=C(C)C[C@H]([C@@H](C)[C@H]2CC[C@H]3[C@@H]4C[C@H]5O[C@]56[C@@H](O)C=CC(=O)[C@]6(C)[C@H]4CC[C@]23C)OC1=O`, the IC50 in assay [3] was 22 µM; in assay [4], 9.5 µM.

For the compound `C[C@H]1CCC/C=C/C(=O)c2c(O)c(Cl)c(O)c(Cl)c2CC(=O)O1`, the IC50 in assay [5] was found to be 7.9 µM; in assay [3], 15.3 µM.

On to `COc1ccc(C(=O)c2oc3ccccc3c2NC(C)=O)cc1`, for which the IC50 in [6] is more than 100 µM.

With `Nc1nc2c(ncn2COC(CO)CO)c(=O)[nH]1` [GANCICLOVIR], 1.3 µM corresponded to half-maximal inhibition in assay [7] (IC50).

For `Fc1ccc(C(CCCNCC2CCc3[nH]c4ccc(F)cc4c3C2)c2ccc(F)cc2)cc1` (stereo not drawn), the IC50 worked out at 7.2 µM in assay [8], 0.71 µM in assay [9] and 0.71 µM in assay [11]. For the same compound, the Ratio IC50 in assay [10] is 10.

Regarding `Clc1ccccc1C(c1ccccc1)(c1ccccc1)n1ccnc1` [CLOTRIMAZOLE], the IC50 in [12] was 1.4 µM.

Consider `[N-]=[N+]=Nc1cccc(-n2c(COc3ccc(CCCO)cc3)nnc2SC2CCCC2)c1`, for which, in assay [13], the IC50 came out at 1.1 µM.

Regarding `Cc1cc(OCc2nnc(SC3CCCC3)n2-c2cccnc2)ccc1-c1ccc(S(C)(=O)=O)cc1`, the IC50 in assay [7] came out at 0.13 µM.

As for `O=C(CCl)Nc1cccc(NC2=NS(=O)(=O)c3ccccc32)c1`, it took 3 µM to reach half-maximal inhibition in [14] (IC50).

Take `CC(C)N1CCN(CCNC2CCN(c3cccc(-c4cc5cc(C(=O)N(C)C)ccc5[nH]4)c3)CC2)CC1`: the IC50 in assay [15] stood at 31.4 µM.

In turn, `CC(C)N1CCN(CCNC2CCN(c3cccc(-c4cc5cc(C(F)(F)F)ccc5[nH]4)c3)CC2)CC1` came in with a 50% inhibitory concentration (IC50) in assay [15] of 4.6 µM.

In the case of `O=C(/C=C1\Nc2ccccc2C(=O)N2CCC[C@@H]12)/C=C/c1c[nH]c2ccc(I)cc12`, binding in assay [16] was put at a Kd of 7 µM.

For `[N-]=[N+]=Nc1cccc(OCc2nnc(SC3CCCC3)n2-c2cccnc2)c1`, in [13], the IC50 amounted to 0.76 µM.

As for `CC(C)N1CCN(CCNC2CCN(c3cccc(-c4cc5cc(F)ccc5[nH]4)c3)CC2)CC1`, the figures for the IC50 in assay [17] and in assay [18] were 0.316 to 2 µM and 0.02 to 0.07 µM, respectively.

In [15], `CC(C)N1CCN(CCNC2CCN(c3cccc(-c4cc5cc(C#N)ccc5[nH]4)c3)CC2)CC1` gave an IC50 of 0.044 µM.
